Measurements reported in paper PMC6659393, “A New Use for an Old Drug: Carmofur Attenuates Lipopolysaccharide (LPS)-Induced Acute Lung Injury via Inhibition of FAAH and NAAA Activities” (Frontiers in Pharmacology, 2019).

Tests used:
[1] = biological target: T1, N-acylethanolamine acid amidase (NAAA) (Rattus norvegicus, UniProt Q5KTC7); assay: C17:[…] FAE hydrolysis by HPLC-MS in crude protein of carmofur-treated HEK293-rNAAA cells; dialysis reversibility test; format: cell-based
T1 construct: rat NAAA overexpressed in HEK293 cells (HEK293-rNAAA), crude protein
T1 sequence (Q5KTC7 34-130): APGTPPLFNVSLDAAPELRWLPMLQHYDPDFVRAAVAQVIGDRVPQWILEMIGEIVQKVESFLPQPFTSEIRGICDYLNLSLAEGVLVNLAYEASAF
T1 sequence (Q5KTC7 131-362): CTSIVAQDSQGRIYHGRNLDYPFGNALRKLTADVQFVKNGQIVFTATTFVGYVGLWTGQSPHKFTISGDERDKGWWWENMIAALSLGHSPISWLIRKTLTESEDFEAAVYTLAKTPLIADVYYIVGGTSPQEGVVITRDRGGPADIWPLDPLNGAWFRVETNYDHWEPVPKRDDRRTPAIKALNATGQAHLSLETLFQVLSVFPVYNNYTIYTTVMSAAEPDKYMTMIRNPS

[2] = biological target: T2, fatty acid amide hydrolase (FAAH) (Rattus norvegicus, UniProt P97612); assay: AEA hydrolysis by HPLC-MS in crude protein of carmofur-treated HEK293-rFAAH cells; dialysis reversibility test; format: cell-based
T2 construct: rat FAAH overexpressed in HEK293 cells (HEK293-rFAAH), crude protein
T2 sequence (P97612 1-579): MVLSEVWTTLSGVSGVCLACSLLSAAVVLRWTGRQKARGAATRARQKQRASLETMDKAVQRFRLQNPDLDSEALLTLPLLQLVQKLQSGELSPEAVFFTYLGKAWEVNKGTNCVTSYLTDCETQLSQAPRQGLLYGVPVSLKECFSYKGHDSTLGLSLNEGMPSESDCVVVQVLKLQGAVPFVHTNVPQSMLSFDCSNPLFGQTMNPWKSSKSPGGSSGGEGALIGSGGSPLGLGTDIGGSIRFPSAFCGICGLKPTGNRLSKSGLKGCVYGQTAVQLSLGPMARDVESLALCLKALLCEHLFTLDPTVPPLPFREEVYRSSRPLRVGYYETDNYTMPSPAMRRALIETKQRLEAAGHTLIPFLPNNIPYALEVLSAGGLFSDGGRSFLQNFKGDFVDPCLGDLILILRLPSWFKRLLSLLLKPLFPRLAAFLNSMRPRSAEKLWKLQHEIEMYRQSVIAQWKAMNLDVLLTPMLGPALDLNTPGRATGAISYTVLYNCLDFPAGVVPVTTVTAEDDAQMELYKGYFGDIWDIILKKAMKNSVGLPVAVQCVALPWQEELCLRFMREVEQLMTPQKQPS

CCCCCCNC(=O)n1cc(F)c(=O)[nH]c1=O [carmofur]
IC50 [1]: 0.71 ± 0.054 µM
IC50 [2]: 0.11 ± 0.025 µM
